Entries after “also recorded” stand apart in the source; their conditions may differ. Marks after values point to notes of the source that are not given here.
Columns and labels:
[1] = Linagliptin alone or with low-dose exenatide for 28 days: plasma parameters and body composition in DIO rats
[2] = Pharmacokinetics of BI 1356 after multiple oral doses once daily for 12 days in patients with type 2 diabetes; settings: for RA, AUC (accumulation ratio) / RA, Cmax (accumulation ratio): 12 days, type 2 diabetes patients, gMean
[3] = Day 29, DIO rats, vehicle pump + Linagliptin 3 mg/kg PO, mean ± SEM

## CC#CCn1c(N2CCC[C@@H](N)C2)nc2c1c(=O)n(Cc1nc(C)c3ccccc3n1)c(=O)n2C [BI 1356]
[1]; [3]
  Carcass Fat: 151.1 ± 7.3 g
  Carcass Protein: 63.8 ± 4.0 g
  Carcass Water: 212.6 ± 3.4 g
  GLP-1 (pM): 5.72 ± 0.9^b pM
  Glucose: 8.72 ± 0.22 mM
  Insulin: 1.82 ± 0.36 ng/mL
  Leptin: 23.9 ± 2.5 ng/mL
[1]; linagliptin 3 mg/kg po in combination with exenatide 3 μg/kg/day sc, 28 days, DIO rats
  augmentation of the effect of a low dose of exenatide: does not augment the effect of a low dose of exenatide
[1]; rat, in vivo
  effect on body weight, daily food intake, plasma glucose, insulin or carcass fat compared to vehicle-treated controls: no effect
[2]; 1 mg once daily oral
  RA, AUC (accumulation ratio): 2.03
  RA, Cmax (accumulation ratio): 1.44
[2]; 2.5 mg once daily oral
  RA, AUC (accumulation ratio): 1.37
  RA, Cmax (accumulation ratio): 1.25
[2]; 5 mg once daily oral
  RA, AUC (accumulation ratio): 1.33
  RA, Cmax (accumulation ratio): 1.33
[2]; 10 mg once daily oral
  RA, AUC (accumulation ratio): 1.18
  RA, Cmax (accumulation ratio): 1.40
[2]; therapeutic oral dose levels
  excretion via the kidney: < 7 % of the administered oral dose
  main route of excretion: mainly excreted via the liver; also recorded: primarily excreted unchanged via the bile
BI 1356 3 mg/kg po from Day 11 after exenatide 30 μg/kg/day Day 1-10, DIO rats, vs vehicle control
  body weight from day 11 after exenatide treatment: stabilize their body weight at the new weight level
Linagliptin 3 mg/kg po after exenatide withdrawal, DIO rats, p=0.07
  less fat put on than vehicle-treated counterparts during exenatide withdrawal: 10.6%
Replacement of exenatide 30 μg/kg/day (Day 1-10) with linagliptin 3 mg/kg po from Day 11, DIO rats
  body fat weight regain after GLP-1R agonist cessation: prevents body fat weight regain
